# Measurements taken from patent publication US20150344540A1, “NOVEL GLP-1 RECEPTOR AGONISTS WITH CHOLESTEROL EFFLUX ACTIVITY” (NOVO NORDISK A/S, priority 2012, published 2015).
# Where a SMILES comes first, the peptide text is derived from it. Where no end group is shown, it is not given here. [ ]: non-standard residue; d: D form. Aib = CC(C)(N)C(=O)O
# System: Mouse monocyte/macrophage cell line, RAW 264.7
# Assay: Cholesterol efflux assay (3H-cholesterol, macrophage cell line)
# Type: cell-based
# Conditions: RAW 264.7, 4 hrs incubation, 0.1% human serum albumin, ABCA1-mediated efflux
row,Molecule,4 h Cholesterol Efflux Emax [%]
1,"CC[C@H](C)[C@H](NC(=O)[C@H](Cc1ccccc1)NC(=O)[C@H](CCC(=O)O)NC(=O)[C@H](CCCCN)NC(=O)[C@@H](NC(=O)[C@H](CCCCN)NC(=O)[C@H](CCC(=O)O)NC(=O)CNC(=O)[C@H](CCC(=O)O)NC(=O)[C@H](CC(C)C)NC(=O)[C@H](Cc1ccc(O)cc1)NC(=O)[C@H](CO)NC(=O)[C@H](CO)NC(=O)[C@@H](NC(=O)[C@H](CC(=O)O)NC(=O)[C@H](CO)NC(=O)[C@@H](NC(=O)[C@H](Cc1ccccc1)NC(=O)[C@@H](NC(=O)CNC(=O)[C@H](CCC(=O)O)NC(=O)C(C)(C)NC(=O)[C@@H](N)Cc1c[nH]cn1)[C@@H](C)O)[C@@H](C)O)C(C)C)C(C)C)C(=O)N[C@@H](C)C(=O)N[C@@H](Cc1c[nH]c2ccccc12)C(=O)N[C@@H](CC(C)C)C(=O)N[C@H](C(=O)N[C@@H](CCC(=O)O)C(=O)N[C@@H](CCCCN)C(=O)NC(C)(C)C(=O)N[C@@H](CCCCN)C(=O)N[C@@H](CCC(=O)O)C(=O)N[C@@H](Cc1ccccc1)C(=O)N[C@@H](CC(C)C)C(N)=O)C(C)C [Compound 60, [Aib8,Glu23,Lys24,Val25,Glu34,Lys35,Aib36,Lys37]-GLP-1-(7-37)-peptidyl-Glu-Phe-Leu amide] (H-H[Aib]EGTFTSDVSSYLEGEKVKEFIAWLVEK[Aib]KEFL-NH2)",111
2,"H-HAEGTFTSDVSSYLEGEAVKEFIAWLVEKVKEHLEK-OH [Compound 125, [Glu23,Val25,Glu34,Lys35,Val36,Lys37]-GLP-1-(7-37)-peptidyl-Glu-His-Leu-Glu-Lys]",111
3,"CC[C@H](C)[C@H](NC(=O)[C@H](Cc1ccccc1)NC(=O)[C@H](CCC(=O)O)NC(=O)[C@H](CCCNC(=N)N)NC(=O)[C@@H](NC(=O)[C@H](C)NC(=O)[C@H](CCC(=O)O)NC(=O)[C@H](CCC(=O)O)NC(=O)[C@H](CCC(=O)O)NC(=O)[C@H](CCSC)NC(=O)[C@H](CCC(N)=O)NC(=O)[C@H](CCCCN)NC(=O)[C@H](CO)NC(=O)[C@H](CC(C)C)NC(=O)[C@H](CC(=O)O)NC(=O)[C@H](CO)NC(=O)[C@@H](NC(=O)[C@H](Cc1ccccc1)NC(=O)[C@@H](NC(=O)CNC(=O)[C@H](CCC(=O)O)NC(=O)C(C)(C)NC(=O)[C@@H](N)Cc1c[nH]cn1)[C@@H](C)O)[C@@H](C)O)C(C)C)C(=O)N[C@@H](CCC(=O)O)C(=O)N[C@@H](Cc1c[nH]c2ccccc12)C(=O)N[C@@H](CC(C)C)C(=O)N[C@@H](CCCCN)C(=O)N[C@@H](CC(N)=O)C(=O)N[C@@H](CCCCN)C(=O)NC(C)(C)C(=O)N[C@@H](CC(C)C)C(=O)N[C@@H](CCC(=O)O)C(=O)N[C@@H](Cc1ccccc1)C(=O)N[C@@H](CC(C)C)C(=O)N[C@@H](CCC(=O)O)C(=O)N[C@@H](CC(C)C)C(=O)N[C@@H](CC(C)C)C(N)=O [Compound 29, [Aib2,Glu21,Lys29,Aib30,Leu31,Glu32,Phe33,Leu34,Glu35,Leu36,Leu371-Exendin-4-(1-37)-peptide amide]",81
4,"CC[C@H](C)[C@H](NC(=O)[C@H](Cc1ccccc1)NC(=O)[C@H](CCC(=O)O)NC(=O)[C@H](CCCCN)NC(=O)[C@@H](NC(=O)[C@H](C)NC(=O)[C@H](Cc1c[nH]c2ccccc12)NC(=O)CNC(=O)[C@H](CCC(=O)O)NC(=O)[C@H](CC(C)C)NC(=O)[C@H](Cc1ccc(O)cc1)NC(=O)[C@H](CO)NC(=O)[C@H](CO)NC(=O)[C@@H](NC(=O)[C@H](CC(=O)O)NC(=O)[C@H](CO)NC(=O)[C@@H](NC(=O)[C@H](Cc1ccccc1)NC(=O)[C@@H](NC(=O)CNC(=O)[C@H](CCC(=O)O)NC(=O)C(C)(C)NC(=O)[C@@H](N)Cc1c[nH]cn1)[C@@H](C)O)[C@@H](C)O)C(C)C)C(C)C)C(=O)N[C@@H](C)C(=O)N[C@@H](Cc1c[nH]c2ccccc12)C(=O)N[C@@H](CC(C)C)C(=O)N[C@H](C(=O)N[C@@H](CCC(=O)O)C(=O)N[C@@H](CCCCN)C(=O)NC(C)(C)C(=O)N[C@@H](CCCCN)C(=O)N[C@@H](CCC(=O)O)C(=O)N[C@@H](Cc1ccccc1)C(=O)N[C@@H](CC(C)C)C(N)=O)C(C)C [Compound 21, [Aib8,Trp23,Val25,Glu34,Lys35,Aib36,Lys37]-GLP-1-(7-37)-peptidyl-Glu-Phe-Leu amide] (H-H[Aib]EGTFTSDVSSYLEGWAVKEFIAWLVEK[Aib]KEFL-NH2)",70
5,"CC[C@H](C)[C@H](NC(=O)[C@H](Cc1ccccc1)NC(=O)[C@H](CCC(=O)O)NC(=O)[C@H](CCCNC(=N)N)NC(=O)[C@@H](NC(=O)[C@H](C)NC(=O)[C@H](CCC(=O)O)NC(=O)[C@H](CCC(=O)O)NC(=O)[C@H](CCC(=O)O)NC(=O)[C@H](CCSC)NC(=O)[C@H](CCC(N)=O)NC(=O)[C@H](CCCCN)NC(=O)[C@H](CO)NC(=O)[C@H](CC(C)C)NC(=O)[C@H](CC(=O)O)NC(=O)[C@H](CO)NC(=O)[C@@H](NC(=O)[C@H](Cc1ccccc1)NC(=O)[C@@H](NC(=O)CNC(=O)[C@H](CCC(=O)O)NC(=O)C(C)(C)NC(=O)[C@@H](N)Cc1c[nH]cn1)[C@@H](C)O)[C@@H](C)O)C(C)C)C(=O)N[C@@H](CCC(=O)O)C(=O)N[C@@H](Cc1c[nH]c2ccccc12)C(=O)N[C@@H](CC(C)C)C(=O)N[C@@H](CCCCN)C(=O)N[C@@H](CC(N)=O)C(=O)N[C@@H](CCCCN)C(=O)NC(C)(C)C(=O)N[C@@H](CC(C)C)C(=O)N[C@@H](CCC(=O)O)C(=O)N[C@@H](Cc1ccccc1)C(=O)N[C@@H](CC(C)C)C(=O)N[C@@H](C)C(=O)N[C@@H](CC(C)C)C(=O)N[C@@H](CC(C)C)C(N)=O [Compound 41, [Aib2,Glu21,Lys29,Aib30,Leu31,Glu32,Phe33,Leu34,Leu36,Leu371-Exendin-4-(1-37)-peptide amide] (H-H[Aib]EGTFTSDLSKQMEEEAVREFIEWLKNK[Aib]LEFLALL-NH2; N-terminus assumed)",98
6,"CC[C@H](C)[C@H](NC(=O)[C@H](Cc1ccccc1)NC(=O)[C@H](CCC(=O)O)NC(=O)[C@H](CCCCN)NC(=O)[C@@H](NC(=O)[C@H](C)NC(=O)[C@H](CCC(=O)O)NC(=O)[C@H](CCC(=O)O)NC(=O)[C@H](CCC(=O)O)NC(=O)[C@H](CC(C)C)NC(=O)[C@H](Cc1ccc(O)cc1)NC(=O)[C@H](CO)NC(=O)[C@H](CO)NC(=O)[C@@H](NC(=O)[C@H](CC(=O)O)NC(=O)[C@H](CO)NC(=O)[C@@H](NC(=O)[C@H](Cc1ccccc1)NC(=O)[C@@H](NC(=O)CNC(=O)[C@H](CCC(=O)O)NC(=O)C(C)(C)NC(=O)[C@@H](N)Cc1c[nH]cn1)[C@@H](C)O)[C@@H](C)O)C(C)C)C(C)C)C(=O)N[C@@H](C)C(=O)N[C@@H](Cc1c[nH]c2ccccc12)C(=O)N[C@@H](CC(C)C)C(=O)N[C@H](C(=O)N[C@@H](CCC(=O)O)C(=O)N[C@@H](CCCCN)C(=O)N[C@H](C(=O)N[C@@H](CCCCN)C(=O)N[C@@H](CCC(=O)O)C(=O)N[C@@H](CC(C)C)C(=O)N[C@@H](CC(C)C)C(N)=O)C(C)C)C(C)C [Compound 109, [Aib8,Glu22,Glu23,Val25,Glu34,Lys35,Val36,Lys37]-GLP-1-(7-37)-peptidyl-Glu-Leu-Leu amide] (H-H[Aib]EGTFTSDVSSYLEEEAVKEFIAWLVEKVKELL-NH2)",99
7,"CC[C@H](C)[C@H](NC(=O)[C@H](Cc1ccccc1)NC(=O)[C@H](CCC(=O)O)NC(=O)[C@H](CCCNC(=N)N)NC(=O)[C@H](C)NC(=O)[C@H](CCCNC(=N)N)NC(=O)[C@H](CCCCN)NC(=O)CNC(=O)[C@H](CCC(=O)O)NC(=O)[C@H](CC(C)C)NC(=O)[C@H](Cc1ccc(O)cc1)NC(=O)[C@H](CO)NC(=O)[C@H](CO)NC(=O)[C@@H](NC(=O)[C@H](CC(=O)O)NC(=O)[C@H](CO)NC(=O)[C@@H](NC(=O)[C@H](Cc1ccccc1)NC(=O)[C@@H](NC(=O)CNC(=O)[C@H](CCC(=O)O)NC(=O)C(C)(C)NC(=O)[C@@H](N)Cc1c[nH]cn1)[C@@H](C)O)[C@@H](C)O)C(C)C)C(=O)N[C@@H](C)C(=O)N[C@@H](Cc1c[nH]c2ccccc12)C(=O)N[C@@H](CC(C)C)C(=O)N[C@H](C(=O)N[C@@H](CCC(=O)O)C(=O)N[C@@H](CCCCN)C(=O)NC(C)(C)C(=O)N[C@@H](CCCCN)C(=O)N[C@@H](CCC(=O)O)C(=O)N[C@@H](Cc1ccccc1)C(=O)N[C@@H](CC(C)C)C(N)=O)C(C)C [Compound 52, [Aib8,Lys23,Arq24,Arq26,Glu34,Lys35,Aib36,Lys37]-GLP-1-(7-37)-peptidyl-Glu-Phe-Leu amide] (H-H[Aib]EGTFTSDVSSYLEGKRAREFIAWLVEK[Aib]KEFL-NH2)",98
8,"CC[C@H](C)[C@H](NC(=O)[C@H](Cc1ccccc1)NC(=O)[C@H](CCC(=O)O)NC(=O)[C@H](CCCCN)NC(=O)[C@@H](NC(=O)C(C)(C)NC(=O)[C@H](CCC(=O)O)NC(=O)CNC(=O)[C@H](CCC(=O)O)NC(=O)[C@H](CC(C)C)NC(=O)[C@H](Cc1ccc(O)cc1)NC(=O)[C@H](CO)NC(=O)[C@H](CO)NC(=O)[C@@H](NC(=O)[C@H](CC(=O)O)NC(=O)[C@H](CO)NC(=O)[C@@H](NC(=O)[C@H](Cc1ccccc1)NC(=O)[C@@H](NC(=O)CNC(=O)[C@H](CCC(=O)O)NC(=O)C(C)(C)NC(=O)[C@@H](N)Cc1c[nH]cn1)[C@@H](C)O)[C@@H](C)O)C(C)C)C(C)C)C(=O)NC(C)(C)C(=O)N[C@@H](Cc1c[nH]c2ccccc12)C(=O)N[C@@H](CC(C)C)C(=O)N[C@H](C(=O)N[C@@H](CCC(=O)O)C(=O)N[C@@H](CCCCN)C(=O)NC(C)(C)C(=O)N[C@@H](CCCCN)C(=O)N[C@@H](CCC(=O)O)C(=O)N[C@@H](Cc1ccccc1)C(=O)N[C@@H](CC(C)C)C(N)=O)C(C)C [Compound 3, [Aib8,Glu23,Aib24,Val25,Aib30,Glu34,Lys35,Aib36,Lys37]-GLP-1-(7-37)-peptidyl-Glu-Phe-Leu amide] (H-H[Aib]EGTFTSDVSSYLEGE[Aib]VKEFI[Aib]WLVEK[Aib]KEFL-NH2)",82

# Same assay, conditions: read-out: 4 h Cholesterol Efflux EC50; RAW 264.7, 4 hrs incubation, 0.1% human serum albumin, ABCA1-mediated efflux (CPT-cAMP induced minus non-induced)
row,Molecule,EC50 [nM]
1,HAQGTFTSDYSKYLDSKAAREFVQWLLEKVKEFL-NH2 [Compound 68],270
